In test [1] the target is T1, 5-hydroxytryptamine (5-HT) reuptake sites (Rattus norvegicus, UniProt P31652).
T1 construct: Frontal cortical tissue from the brains of male Sprague-Dawley rats; from tissue; host or cells: rat brain frontal cortex (crude synaptosomes in A2, washed membranes in A5)
The test can be described thus: displacement of [3H]paroxetine from 5-HT reuptake sites, frontal cortical membranes. It counts as binding. The following applies: 10^-6 M test compound, [3H]paroxetine 30 pM, one test only, read-out: 5-HT uptake (% displacement of specific binding of tritiated ligand). The procedure: Frontal cortical tissue from the brains of male Charles River rats weighing 150-250 g was homogenised in ice-cold 0.25M sucrose (1:30 w/v) using a Kinematic polytron (speed setting 6 for 30 seconds) and centrifuged at 1000 g for 12 minutes. The supernatant was stored on ice and the pellet was resuspended in 0.25M sucrose (1:20 w/v) and centrifuged at 850 g for 10 minutes. Combined supernatants were diluted to 1:100 w/v with ice-cold 50 mM Tris-HCl, pH 7.5 (at 25° C.) containing 120 mM sodium chloride and 5 mM potassium chloride (Tris buffer) and centrifuged at 40,000 g for 10 minutes. The resulting pellet was resuspended in 50 mM Tris buffer (1:100 w/v) and recentrifuged at 40,000 g for 10 minutes. The final pellet was resuspended in 50 mM Tris buffer (equivalent to 2 mg wet weight of tissue/ml) and used immediately in the binding assay. All centrifugations were carried out at 4° C.
Membranes (1000 μl; equivalent to 2 mg wet weight of tissue/tube) were incubated with 200 μl [^3 H]paroxetine at a single concentration of 30 pM and 200 μl of distilled water (total binding) or 200 μl of test compound (10^-6 M) or 200 μl of citalopram (1 μM; non-specific binding) for 2 h at 22° C.
Membrane bound radioactivity was recovered by filtration under vacuum through Whatman GFIC filters using a Brandel cell harvester. Filters were rapidly washed with 16 ml ice-cold 50 mM Tris buffer and radioactivity determined by liquid scintillation counting (2 ml Packard MV Gold scintillator).
(§1) For each of these tests measuring the ability of compounds of Formula I to displace standard ligands from dopamine (DA), 5-hydroxytryptamine (5-HT) and noradrenaline (NA) reuptake sites in vitro, the percentage displacement of specific binding of tritiated ligand by 10^-6 M test compound was calculated in the following way:
(§2) Firstly, specific binding of tritiated ligand in the absence (A) and presence (B) of test compound was determined:
(§3) In the absence of compound:
(§4) A (dpm)=Total binding (dpm)-Non-specific binding (dpm)
(§5) In the presence of compound (10^-6 M):
(§6) B (dpm)=Binding at 10^-6 M (dpm)-Non-specific binding (dpm)
(§7) The specific binding of tritiated ligand in the presence (B) of compound was then converted to a percentage of specific binding of tritiated ligand in the absence (A) of compound:
(§8) % Specific binding at 10^-6 M=B (dpm)/A(dpm)×100
(§9) The percentage displacement of specific binding of trtiated ligand by the test compound (10^-6 M) was then obtained by subtraction of the percentage specific binding in the presence of compound from the percentage specific binding in the absence of compound, which is taken as the maximum binding and so equals 100%:
(§10) % Displacement at 10^-6 M=100-% Specific binding at 10^-6 M.
(§11) The values given below in Table 2 for examples 6 to 76 are % displacement of specific binding of tritiated ligand by 10^-6 M test compound and represent results from one test only. IA refers to <50% displacement.

Test [2] addresses T2, noradrenaline (NA) reuptake sites (Rattus norvegicus, UniProt Q63380).
T2 construct: Frontal cortical tissue from the brains of male Sprague-Dawley rats; from tissue; host or cells: rat brain frontal cortex (crude synaptosomes in A3, washed membranes in A6)
Kind of test: displacement of [3H]nisoxetine from noradrenaline reuptake sites, frontal cortical membranes. The note with it: 10^-6 M test compound, [3H]nisoxetine 0.6 nM, one test only, read-out: NA uptake (% displacement of specific binding of tritiated ligand). Here is the method: Frontal cortical tissue from the brains of male Charles River rats weighing 150-250 g was homogenised in ice-cold 50 mM Tris-HCl, pH 7.4 (at 25° C.) containing 120 mM sodium chloride and 5 mM potassium chloride (Tris buffer; 1:60 w/v) using a Kinematic polytron (speed setting 6 for 30 seconds) and centrifuged at 40,000 g for 10 minutes. The supernatant was discarded and the pellet rehomogenised in Tris buffer, 1:60 w/v, and centrifuged at 40,000 g for 10 minutes. This step was repeated twice more so that, in total, the brain tissue was homogenised and centrifuged four times. The final pellet was resuspended in 50 mM Tris-HCl, pH 7.4 containing 300 mM sodium chloride and 5 mM potassium chloride (equivalent to 25 mg wet weight of tissue/ml) and used immediately in the binding assay. All centrifugations were performed at 4° C.
Membranes (400 μl; equivalent to 10 mg wet weight of tissue/tube) were incubated with 50 μl [^3 H]nisoxetine at a single concentration of 0.6 nM and 50 μl of distilled water (total binding) or 50 μl of test compound (10^-6 M) or 50 μl of mazindol (1 μM; non-specific binding) for 4 h at 4° C.
Membrane bound radioactivity was recovered by filtration under vacuum through Skatron 11734 filters using a Skatron cell harvester. Filters were rapidly washed with ice-cold 50 mM Tris-HCl, pH 7.4 containing 120 mM sodium chloride and 5 mM potassium chloride (wash setting 9,9,0) and radioactivity determined by liquid scintillation counting (1 ml Packard MV Gold scintillator).
as §1, §2, §3, §4, §5, §6, §7, §8, §9, §10, §11

The target of test [3] is T3, dopamine (DA) reuptake sites (Rattus norvegicus, UniProt P23977).
T3 construct: Striatal tissue from the brains of male Charles River rats weighing 150-250 g; from tissue; host or cells: rat brain striatum (crude synaptosomes in A1, washed membranes in A4)
The test can be described thus: displacement of [3H]GBR 12935 from dopamine reuptake sites, striatal membranes. It counts as binding. The note with it: 10^-6 M test compound, [3H]GBR 12935 1 nM, one test only, read-out: DA uptake (% displacement of specific binding of tritiated ligand). The procedure:
Striatal tissue from the brains of male Charles River rats weighing 150-250 g was homogenised in ice-cold 0.32M sucrose (1:80 w/v) using a motor driven teflon pestle (12 strokes, 800 rpm) and centrifuged at 1000 g for 12 minutes. The supernatant was stored on ice and the pellet was resuspended in 0.32M sucrose (1:80 w/v) and centrifuged at 850 g for 10 minutes. Combined supernatants were diluted to 1:320 w/v with ice-cold 50 mM Tris-HCl, pH 7.4 (at 25° C.) containing 200 mM sodium chloride and 5 mM potassium chloride (Tris buffer) and centrifuged at 40,000 g for 10 minutes. The resulting pellet was resuspended in 10 ml of 50 mM Tris buffer, incubated at 37° C. for 10 min, diluted in 50 mM Tris buffer (1:320 w/v) and recentrifuged at 40,000 g for 10 minutes. The final pellet was resuspended in 50 mM Tris buffer (equivalent to 1.25 mg wet weight of tissue/ml) and used immediately in the binding assay. All centrifugations were carried out at 4° C.
Membranes (800 μl; equivalent to 1 mg wet weight of tissue/tube) were incubated with 100 μl [^3 H]GBR 12935 at a single concentration of 1 nM and 100 μl of distilled water (total binding) or 100 μl of test compound (10^-6 M) or 100 μl of mazindol (1 μM; non-specific binding) for 90 min at 4° C.
Membrane bound radioactivity was recovered by filtration under vacuum through Whatman GF/C filters, pre-soaked for 1 h in 0.5% polyethylenimine,using a Brandel cell harvester. Filters were rapidly washed with 16 ml of ice-cold 50 mM Tris-HCl, pH 7.4 and radioactivity determined by liquid scintillation counting (2 ml Packard MV Gold scintillator).
as §1, §2, §3, §4, §5, §6, §7, §8, §9, §10, §11

Counter-ions that a name gives are not always drawn.

T3 sequence (P23977 whole entry): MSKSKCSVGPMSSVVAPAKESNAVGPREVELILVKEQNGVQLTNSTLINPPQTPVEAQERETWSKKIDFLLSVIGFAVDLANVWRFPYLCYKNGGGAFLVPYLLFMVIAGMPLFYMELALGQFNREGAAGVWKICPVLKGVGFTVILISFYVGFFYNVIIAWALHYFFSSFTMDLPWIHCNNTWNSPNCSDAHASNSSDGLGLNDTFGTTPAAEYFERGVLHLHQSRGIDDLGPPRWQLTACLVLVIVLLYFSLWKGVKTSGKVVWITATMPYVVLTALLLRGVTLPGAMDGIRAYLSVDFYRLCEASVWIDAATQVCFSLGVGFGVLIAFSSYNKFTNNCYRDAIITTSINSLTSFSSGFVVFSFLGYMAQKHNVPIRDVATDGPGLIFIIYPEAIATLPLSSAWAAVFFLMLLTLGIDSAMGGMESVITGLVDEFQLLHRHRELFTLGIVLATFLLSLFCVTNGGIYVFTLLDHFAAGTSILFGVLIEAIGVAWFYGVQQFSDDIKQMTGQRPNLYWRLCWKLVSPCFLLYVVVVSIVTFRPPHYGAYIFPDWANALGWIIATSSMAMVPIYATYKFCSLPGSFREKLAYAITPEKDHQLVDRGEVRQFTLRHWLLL
T1 sequence (P31652 whole entry): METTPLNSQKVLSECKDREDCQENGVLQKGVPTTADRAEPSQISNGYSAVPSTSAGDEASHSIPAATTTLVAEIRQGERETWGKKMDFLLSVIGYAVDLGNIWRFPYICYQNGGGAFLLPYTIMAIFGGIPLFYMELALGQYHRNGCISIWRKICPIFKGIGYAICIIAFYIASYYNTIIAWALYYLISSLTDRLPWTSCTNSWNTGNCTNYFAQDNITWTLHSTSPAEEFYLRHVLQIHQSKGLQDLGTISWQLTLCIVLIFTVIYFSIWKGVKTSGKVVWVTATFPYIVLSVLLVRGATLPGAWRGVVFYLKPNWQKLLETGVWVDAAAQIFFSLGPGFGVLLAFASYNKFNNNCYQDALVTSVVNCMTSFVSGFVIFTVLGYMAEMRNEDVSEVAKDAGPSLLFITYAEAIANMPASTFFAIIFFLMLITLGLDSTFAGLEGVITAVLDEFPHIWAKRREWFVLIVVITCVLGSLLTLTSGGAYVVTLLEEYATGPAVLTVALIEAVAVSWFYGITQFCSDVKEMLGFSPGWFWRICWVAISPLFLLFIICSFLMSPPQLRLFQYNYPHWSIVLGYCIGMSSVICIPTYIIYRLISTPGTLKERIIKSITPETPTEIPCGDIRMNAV
T2 sequence (Q63380 1-617): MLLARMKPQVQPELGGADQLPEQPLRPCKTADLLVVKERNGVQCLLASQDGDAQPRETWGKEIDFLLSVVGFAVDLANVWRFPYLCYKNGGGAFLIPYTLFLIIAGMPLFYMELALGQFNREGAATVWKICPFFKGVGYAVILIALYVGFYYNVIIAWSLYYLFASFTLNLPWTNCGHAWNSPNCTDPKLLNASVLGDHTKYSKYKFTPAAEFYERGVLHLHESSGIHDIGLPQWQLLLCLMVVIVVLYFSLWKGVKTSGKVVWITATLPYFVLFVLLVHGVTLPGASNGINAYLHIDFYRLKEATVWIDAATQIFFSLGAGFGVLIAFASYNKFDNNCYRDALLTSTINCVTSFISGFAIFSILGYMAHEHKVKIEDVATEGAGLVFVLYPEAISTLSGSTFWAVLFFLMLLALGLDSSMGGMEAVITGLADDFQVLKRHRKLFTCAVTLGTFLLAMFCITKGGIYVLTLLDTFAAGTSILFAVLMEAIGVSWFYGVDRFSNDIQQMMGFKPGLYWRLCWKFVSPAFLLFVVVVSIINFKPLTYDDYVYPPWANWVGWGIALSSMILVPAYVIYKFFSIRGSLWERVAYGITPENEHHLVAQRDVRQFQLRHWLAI

Take `Clc1ccc(C2(C3=C(Cc4ccccc4)SC4=NCCN43)CCC2)cc1` [Example 7, 2-benzyl-3-[1-(4-chlorophenyl)cyclobutyl]-5,6-dihydroimidazo[2,1-b]-thiazole hydrobromide]: the inhibition at 1 µM was 85% in test [1], less than 50% in test [2] and 69% in test [3].
For `Clc1ccc(C2(C3=CSC4=NCCN34)CCCC2)cc1` [Example 71, 3-[1-(4-Chlorophenyl)cyclopentyl]-5,6-dihydroimidazo[2,1-b]thiazole hydrobromide] the same measures were less than 50%, 76% and 96%.
`Cc1ccc(N=c2scc(C3(c4ccc5ccccc5c4)CCC3)n2-c2ccc(C)cc2)cc1` [Example 50, 4-[1-(2-Naphthyl)cyclobutyl]-3-(p-tolyl)-2-(p-tolylimino)-2,3-dihydrothiazole hydrobromide]: the inhibition at 1 µM in test [1] was less than 50%; in test [2], less than 50%; in test [3], 68%.
Turning to `CC(C)N=c1scc(C2(c3ccc4ccccc4c3)CCC2)n1C(C)C` [Example 39, 3-Isopropyl-2-isopropylimino-4-[1-(2-naphthyl)cyclobutyl]-2,3-dihydrothiazole hydrobromide], the inhibition at 1 µM was determined as 100% in test [1], 58% in test [2] and 108% in test [3].
On the same counts, the results for `CCCCN=c1scc(C2(c3ccc4ccccc4c3)CCC2)n1CCCC` [Example 40, 3-Butyl-2-butylimino-4-[1-(2-naphthyl)cyclobutyl]-2,3-dihydrothiazole hydrobromide] are 97%, less than 50% and 113%.
For `Brc1ccc(C2(C3=CSC4=NCCN34)CCC2)cc1` [Example 70, 3-[1-(4-Bromophenyl)cyclobutyl]-5,6-dihydroimidazo[2,1-b]thiazole hydrobromide] the same measures were less than 50%, 52% and 80%.
On the same counts, the results for `CCCN=c1scc(C2(c3ccc(Cl)c(Cl)c3)CCC2)n1CCC` [Example 16, 4-[1-(3,4-Dichlorophenyl)cyclobutyl]-3-propyl-2-propylimino-2,3-dihydrothiazole hydrobromide] are 102%, 56% and 116%.
Take `CCCCN=c1scc(C2(c3ccc(Cl)cc3)CCC2)n1CCCC` [Example 56, 3-Butyl-2-butylimino-4-[1-(4-chlorophenyl)cyclobutyl]-2,3-dihydrothiazole hydrobromide]: the inhibition at 1 µM was less than 50% in test [1], less than 50% in test [2] and 93% in test [3].
`CCN=c1scc(C2(c3ccc4ccccc4c3)CCC2)n1CC` [Example 37, 3-Ethyl-2-ethylimino-4-[1-(2-naphthyl)cyclobutyl]-2,3-dihydrothiazole hydrobromide]: the inhibition at 1 µM in test [1] was 101%; in test [2] it was 102%; in test [3], 110%.
On the same counts, the results for `CCCN=c1scc(C2(c3ccc4ccccc4c3)CCC2)n1CCC` [Example 38, 4-[-(2-Naphthyl)cyclobutyl]-3-propyl-2-propylimino-2,3-dihydrothiazole hydrobromide] are 102%, 95% and 111%.
For `c1ccc(CN=c2scc(C3(c4ccc5ccccc5c4)CCC3)n2Cc2ccccc2)cc1` [Example 44, 3-Benzyl-2-benzylimino-4-[1-(2-naphthyl)cyclobutyl]-2,3-dihydrothiazole hydrobromide] the same measures were 72%, less than 50% and 96%.
For `Cc1ccc(N=c2scc(C3(c4ccc(Cl)c(Cl)c4)CCC3)n2-c2ccc(C)cc2)cc1` [Example 28, 4-[1-(3,4-Dichlorophenyl)cyclobutyl]-3-(p-tolyl)-2-(ptolylimino)-2,3-dihydrothiazole hydrobromide] the same measures were less than 50%, less than 50% and 71%.
For `COc1ccc(CCN=c2scc(C3(c4ccc(Cl)c(Cl)c4)CCC3)n2CCc2ccc(OC)c(OC)c2)cc1OC` [Example 33, 4-[1-(3,4-Dichlorophenyi)cyclobutyl]-3-(3,4-dimethoxyphenethyl)-2-(3,4-dimethoxyphenethylimino)-2,3-dihydnothiazole hydrobromide], the inhibition at 1 µM was 63% in test [1], less than 50% in test [2] and 99% in test [3].
For `Clc1ccc(C2(c3csc(=NCC4CC4)n3CC3CC3)CCC2)cc1Cl` [Example 21, 4-[1-(3,4-Dichlorophenyl)cyclobutyl]-3-cyclopropylmethyl-2-cyclopropylmethylimino-2,3-dihydrothiazole hydrobromide] the same measures were 103%, 50% and 108%.
For `CC(C)(C1=CSC2=NCCN12)c1ccc(Cl)cc1` [Example 73, 3-[1-(4-Chlorophenyl)-1-methylethyl]-5,6-dihydroimidazo[2,1-b]thiazole hydrobromide] the same measures were less than 50%, less than 50% and 59%.
